# Test results reported in patent publication US20150209275A1, “Fast Dissolving Ocular Insert” (UNIVERSITY OF THE WITWATERSRAND, JOHANNESBURG, priority 2012, published 2015).
# Experiments:
# Excised rabbit corneas = assay: Ex vivo permeation, Franz diffusion cell; type: in vitro ADME; details: excised rabbit cornea
# Experimental: Franz diffusion cell apparatus was used to conduct ex vivo permeation studies. Excised rabbit corneas (11.83±0.04 mm in diameter and area […]) were mounted on the Franz diffusion cell apparatus (Permagear, Arnie Systems, USA) connected to a heating bath system for temperature control. The diffusion cell donor chamber was filled with 2 mL Simulated tear (lacrimal) fluid (SLF) (Gonjari et al., 2009) (which was maintained to simulate tear volume). 12 mL Simulated Aqueous Humor (SAH, pH 7.4, 37° C.) (Giannola et al., 2007) solution was contained in the receptor chamber. The cornea was placed such that the surface was in contact with the receptor solution which was continuously stirred by a magnetic stirrer at 20 rpm to simulate blinking. […] Aliquots of sample were withdrawn from the receptor compartment at regular intervals (30, 60, 120, 180, 240 minutes and 24 hours after insertion) and replaced with an equal volume of dissolution medium. Samples were then subjected to the quantification of drug through spectrophotometric analysis at 295 nm (Hewlett Packard 8453 Spectrophotometer, Germany) to determine the drug release and flux (rate of drug permeation per unit area). Drug flux values were calculated at the steady state per unit area by regression analysis of permeation. Drug flux values were calculated employing Equation 7. […]
# CAM = assay: Modified Hen Egg Chorioallontoic (HET-CAM) ocular toxicity test; details: 0.3 mL sample on CAM, 5 minutes
# Experimental: The methodology involved using hen's eggs (50-60 g fertile) that were purchased from a local hatchery (Bruce Hatcheries, South Africa) and less than a week old. The eggs were placed in commercial incubators (Surehatch, Brakenfell, South Africa) and rotated every 12 hours. On day 3, a hole was made and the albumin was removed. The eggs were sealed by sterile heated parafilm and left in an equatorial position. On day 5 and everyday thereafter eggs were candled for viability and non-viable ones were discarded. On day 10, a window (2×2 cm) was made and 2-3 mL saline (0.9% NaCl) was added and eggs were returned to the incubator. […] The eggs were then dosed with 0.3 mL of samples and observed for 5 minutes for any effects of injury in accordance with Table 11 and this was noted. Saline was used as a control for comparison purposes. Eggs were scored for severity of any reaction and time taken to occur (Table 11). At the end of the assay the embryos were discarded immediately by placing the eggs into a freezer −80° C. The following features were used for observation of injury: hemorrhage, vascular lysis and coagulation. FIG. 9 depicts the procedure for the test.
# The period taken for any untoward reaction to occur was noted and the irritation threshold was determined ([…] concentration of samples required for a minimal reaction to occur). The irritation score was calculated by means of Equation 4.
# [1] = as an oral drug; cited from earlier work
compound,measurement,setting,value
Timolol maleate salt [Pure drug dispersion],steady state drug flux,"Excised rabbit corneas; SLF donor, SAH pH 7.4, 37° C. receptor",0.000378 mg.cm^−2.min^−1
same,Kp (permeability co-efficient),Excised rabbit corneas; mean of 3 values,2 ×10⁻⁶ cm/s
"CCCCCCCCCCCCOS(=O)(=O)[O-].[Na+] [SDS, Sodium Dodecyl Sulphate]",HET-CAM Inference,CAM,Severe
same,IS (irritation score),"CAM; scale 0-21, mean of 3 values, Sulphate",10.4
same,HET-CAM Score,"CAM; score 0-3 per Table 11, mean of 3 values",2.5
CC(C)(C)NC[C@H](O)COc1nsnc1N1CCOCC1 [timolol],BCS class,[1],class 1
